In patent US12071430B2 (The Johns Hopkins University, priority 2011, dated 2024):
Like-named read-outs stand apart in the source and are kept apart here.

Columns and labels:
[1] = target: T1, CYP3A4 (Homo sapiens, UniProt P08684); assay: CYP3A4 enzyme assay (Vivid CYP3A4 Green Screening Kit); format: in vitro ADME; settings: for CYP3A4 Inhibition (compared to intracozanole at 1 um): % enzyme inhibition at 1 uM drug / % enzyme inhibition at 1 uM itraconazole; for CYP3A4 inhibition, in words: dose response or compared with itraconazole; for CYP3A4 inhibition at 1 μM, in words: initial screening at 1 μM
T1 construct: purchased ThermoFisher P2857; host or cells: baculosomes (insect-cell microsomes, own knowledge)
T1 sequence (P08684 whole entry): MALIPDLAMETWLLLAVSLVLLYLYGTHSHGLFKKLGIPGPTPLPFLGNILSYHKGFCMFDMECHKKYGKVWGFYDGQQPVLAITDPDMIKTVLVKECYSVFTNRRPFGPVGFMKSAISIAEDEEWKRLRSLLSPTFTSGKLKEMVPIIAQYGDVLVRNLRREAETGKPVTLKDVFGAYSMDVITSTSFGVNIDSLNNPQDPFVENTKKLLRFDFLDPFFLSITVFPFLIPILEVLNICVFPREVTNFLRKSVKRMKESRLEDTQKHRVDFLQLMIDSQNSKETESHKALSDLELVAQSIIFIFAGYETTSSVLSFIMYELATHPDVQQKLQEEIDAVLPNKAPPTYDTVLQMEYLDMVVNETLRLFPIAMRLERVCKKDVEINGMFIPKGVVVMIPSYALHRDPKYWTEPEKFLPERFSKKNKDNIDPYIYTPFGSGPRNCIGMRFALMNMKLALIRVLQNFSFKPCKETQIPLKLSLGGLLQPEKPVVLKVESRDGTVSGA
Procedure: And CYP3A4 inhibition was initially determined using a cell-free fluorescence-based assay at a final concentration of 1 μM (Table 2).
CYP3A4 enzyme assay. CYP3A4 enzyme activity was tested using Vivid™ CYP3A4 Green Screening Kit (ThermoFisher, #P2857) using the manufacturer's protocol. Briefly, CYP3A4 baculosomes and drugs were incubated 10 min at 37° C. Then Vivid® Substrates were added and the fluorescence (ex/em:485/520) were read every 1 min for 60 minute.

[2] = system: HUVEC; assay: HUVEC proliferation, [3H]-thymidine incorporation assay; format: cell-based, human; settings: for Proliferation (IC50/IC50 Itra): HUVEC IC50 relative to itraconazole; for IC50: [3H]-thymidine incorporation, unit inferred, values in μM, read-out: Proliferation IC50
Procedure: The inhibitory effects of the new analogs on HUVEC proliferation were measured using a [3H]-thymidine incorporation assay. The log P values, used as an indicator of lipophilicity, were calculated using ALOGPS2.1 software. Aqueous solubility is a key physiochemical property relevant for oral absorption. We determined the solubility of each analog in 0.001 N HCl (pH=3), which represents the acidic human gastric fluid.
HUVEC Culture and Proliferation Assays. HUVEC (Lonza) were grown in EGM-2 bullet kit media (Lonza) and used at passage eight or lower. The H thymidine incorporation assays were conducted as previously described. Briefly, cells were seeded on 96-well plate at a concentration of 2000 cells/well and allowed to settle overnight. Drugs were added to each well in triplicate. After 24 hours, cells were treated with 1 μCi of [3H] thymidine for 6 h. Then cells were harvested and transferred to filtermats. The scintillation were counted and IC50 were determined using Prism software (version 6.0).

Compound | CYP3A4 Inhibition (compared to intracozanole at 1 um) [1] | CYP3A4 inhibition, in words [1] | CYP3A4 inhibition at 1 μM, in words [1] | HUVEC proliferation / anti-angiogenic potency compared to itraconazole, in words ([2]; HUVEC) | Proliferation (IC50/IC50 Itra) [2] | IC50 ([2]; Homo sapiens, HUVEC) | IC50 ([2]; HUVEC)
CCC(C)n1ncn(-c2ccc(N3CCN(c4ccc(OC[C@@H]5CO[C@@](Cn6cc(C(F)(F)F)nc6C)(c6ccc(Cl)cc6Cl)O5)cc4)CC3)cc2)c1=O (stereo partly drawn) [Compound 39, 1-(sec-butyl)-4-(4-(4-(4-(((2S,4R)-2-(2,4-dichlorophenyl)-2-((2-methyl-4-(trifluoromethyl)-1H-imidazol-1-yl)methyl)-1,3-dioxolan-4-yl)methoxy)phenyl)piperazin-1-yl)phenyl)-1H-1,2,4-triazol-5(4H)-one] | No inhibition | eliminated CYP3A4 inhibition | eliminated | – | 2.8 | – | –
CCC(C)n1ncn(-c2ccc(N3CCN(c4ccc(OC[C@@H]5CO[C@@](Cn6cc(C)nc6C)(c6ccc(Cl)cc6Cl)O5)cc4)CC3)cc2)c1=O (stereo partly drawn) [Compound 40, 1-(sec-butyl)-4-(4-(4-(4-(((2S,4R)-2-(2,4-dichlorophenyl)-2-((2,4-dimethyl-1H-imidazol-1-yl)methyl)-1,3-dioxolan-4-yl)methoxy)phenyl)piperazin-1-yl)phenyl)-1H-1,2,4-triazol-5(4H)-one] | 0.45 | – | – | – | 3.1 | – | –
CCC(C)n1ncn(-c2ccc(N3CCN(c4ccc(OC[C@@H]5CO[C@@](Cn6c(C)cnc6C)(c6ccc(Cl)cc6Cl)O5)cc4)CC3)cc2)c1=O (stereo partly drawn) [Compound 41, 1-(sec-butyl)-4-(4-(4-(4-(((2S,4R)-2-(2,4-dichlorophenyl)-2-((2,5-dimethyl-1H-imidazol-1-yl)methyl)-1,3-dioxolan-4-yl)methoxy)phenyl)piperazin-1-yl)phenyl)-1H-1,2,4-triazol-5(4H)-one] | 0.27 | – | – | – | 4.5 | 0.765 µM | –
CCC(C)n1ncn(-c2ccc(N3CCN(c4ccc(OC[C@@H]5CO[C@@](Cn6ccnc6C(C)C)(c6ccc(Cl)cc6Cl)O5)cc4)CC3)cc2)c1=O (stereo partly drawn) [Compound 45, 1-sec-butyl-4-(4-(4-(4-(((2S,4R)-2-(2,4-dichlorophenyl)-2-((2-isopropyl-1H-imidazol-1-yl)methyl)-1,3-dioxolan-4-yl)methoxy)phenyl)piperazin-1-yl)phenyl)-1H-1,2,4-triazol-5(4H)-one] | 0.07 | – | – | – | 0.5 | 0.084 µM | –
CCC(C)n1ncn(-c2ccc(N3CCN(c4ccc(OC[C@@H]5CO[C@@](Cn6ccnc6-c6ccccc6)(c6ccc(Cl)cc6Cl)O5)cc4)CC3)cc2)c1=O (stereo partly drawn) [Compound 46, 1-sec-butyl-4-(4-(4-(4-(((2S,4R)-2-(2,4-dichlorophenyl)-2-((2-phenyl-1H-imidazol-1-yl)methyl)-1,3-dioxolan-4-yl)methoxy)phenyl)piperazin-1-yl)phenyl)-1H-1,2,4-triazol-5(4H)-one] | 0.27 | – | – | – | 0.8 | – | –
CCC(C)n1ncn(-c2ccc(N3CCN(c4ccc(OC[C@@H]5CO[C@@](Cn6nc(C)nc6C)(c6ccc(Cl)cc6Cl)O5)cc4)CC3)cc2)c1=O (stereo partly drawn) [Compound 47, 1-sec-butyl-4-(4-(4-(4-(((2S,4R)-2-(2,4-dichlorophenyl)-2-((3,5-dimethyl-1H-1,2,4-triazol-1-yl)methyl)-1,3-dioxolan-4-yl)methoxy)phenyl)piperazin-1-yl)phenyl)-1H-1,2,4-triazol-5(4H)-one] | 0.32 | weak inhibition | no CYP3A4 inhibition | – | 1.3 | 0.22 µM | 0.221 µM
CCC(C)n1ncn(-c2ccc(N3CCN(c4ccc(OC[C@@H]5CO[C@@](Cn6ncnn6)(c6ccc(Cl)cc6Cl)O5)cc4)CC3)cc2)c1=O (stereo partly drawn) [Compound 49, 4-(4-(4-(4-(((2S,4R)-2-((2H-tetrazol-2-yl)methyl)-2-(2,4-dichlorophenyl)-1,3-dioxolan-4-yl)methoxy)phenyl)piperazin-1-yl)phenyl)-1-sec-butyl-1H-1,2,4-triazol-5(4H)-one] | 0.2 | – | – | – | 0.7 | 0.124 µM | –
CCC(C)n1ncn(-c2ccc(N3CCN(c4ccc(OC[C@@H]5CO[C@@](Cn6cnc(C)n6)(c6ccc(Cl)cc6Cl)O5)cc4)CC3)cc2)c1=O (stereo partly drawn) [Compound 50, 1-sec-butyl-4-(4-(4-(4-(((2S,4R)-2-(2,4-dichlorophenyl)-2-((3-methyl-1H-1,2,4-triazol-1-yl)methyl)-1,3-dioxolan-4-yl)methoxy)phenyl)piperazin-1-yl)phenyl)-1H-1,2,4-triazol-5(4H)-one] | 0.36 | reduced potency | – | – | 1.6 | – | –

Further lines, with some results ahead:

CYP3A4 Inhibition (compared to intracozanole at 1 um) [1] | CYP3A4 inhibition, in words [1] | CYP3A4 inhibition at 1 μM, in words [1] | Compound | HUVEC proliferation / anti-angiogenic potency compared to itraconazole, in words ([2]; HUVEC) | Proliferation (IC50/IC50 Itra) [2] | IC50 ([2]; Homo sapiens, HUVEC) | IC50 ([2]; HUVEC)
1.18 | – | – | CCC(C)n1ncn(-c2ccc(N3CCN(c4ccc(OC[C@@H]5CO[C@@](Cn6ccnc6)(c6ccc(Cl)cc6Cl)O5)cc4)CC3)cc2)c1=O (stereo partly drawn) [Compound 33, 4-(4-(4-(4-(((2S,4R)-2-((1H-imidazol-1-yl)methyl)-2-(2,4-dichlorophenyl)-1,3-dioxolan-4-yl)methoxy)phenyl)piperazin-1-yl)phenyl)-1-sec-butyl-1H-1,2,4-triazol-5(4H)-one] | higher potency | 0.5 | – | –
No inhibition | – | – | CCC(C)n1ncn(-c2ccc(N3CCN(c4ccc(OC[C@@H]5CO[C@@](Cn6cccn6)(c6ccc(Cl)cc6Cl)O5)cc4)CC3)cc2)c1=O (stereo partly drawn) [Compound 34, 4-(4-(4-(4-(((2S,4R)-2-((1H-pyrazol-1-yl)methyl)-2-(2,4-dichlorophenyl)-1,3-dioxolan-4-yl)methoxy)phenyl)piperazin-1-yl)phenyl)-1-sec-butyl-1H-1,2,4-triazol-5(4H)-one] | – | 1.8 | – | –
0.85 | – | – | CCC(C)n1ncn(-c2ccc(N3CCN(c4ccc(OC[C@@H]5CO[C@@](Cn6ccnc6C)(c6ccc(Cl)cc6Cl)O5)cc4)CC3)cc2)c1=O (stereo partly drawn) [Compound 35, 1-sec-butyl-4-(4-(4-(4-(((2S,4R)-2-(2,4-dichlorophenyl)-2-((2-methyl-1H-imidazol-1-yl)methyl)-1,3-dioxolan-4-yl)methoxy)phenyl)piperazin-1-yl)phenyl)-1H-1,2,4-triazol-5(4H)-one] | – | 1.0 | – | –
1.18 | – | – | CCC(C)n1ncn(-c2ccc(N3CCN(c4ccc(OC[C@@H]5CO[C@@](Cn6cnc(C)c6)(c6ccc(Cl)cc6Cl)O5)cc4)CC3)cc2)c1=O (stereo partly drawn) [Compound 38, 1-sec-butyl-4-(4-(4-(4-(((2S,4R)-2-(2,4-dichlorophenyl)-2-((4-methyl-1H-imidazol-1-yl)methyl)-1,3-dioxolan-4-yl)methoxy)phenyl)piperazin-1-yl)phenyl)-1H-1,2,4-triazol-5(4H)-one] | – | 0.6 | – | –
0.08 | – | – | CCc1nccn1C[C@@]1(c2ccc(Cl)cc2Cl)OC[C@@H](COc2ccc(N3CCN(c4ccc(-n5cnn(C(C)CC)c5=O)cc4)CC3)cc2)O1 (stereo partly drawn) [Compound 43, 1-(sec-butyl)-4-(4-(4-(4-(((2S,4R)-2-(2,4-dichlorophenyl)-2-((2-ethyl-1H-imidazol-1-yl)methyl)-1,3-dioxolan-4-yl)methoxy)phenyl)piperazin-1-yl)phenyl)-1H-1,2,4-triazol-5(4H)-one] | – | 1.4 | – | –
